These results are taken from publication PMC6418145 (Scientific Reports, 2019).

Assay [1] concerns the target T1, H1 histamine receptor (Homo sapiens, UniProt P35367).
T1 construct: expressed in transfected cells; host or cells: HEK-293 or CHO
The experiment in a line: Off-target radioligand binding.

Assay [2] concerns the target Lck kinase (Homo sapiens, UniProt P06239). The experiment in a line: Off-target enzyme assay. In kind it is biochemical. The note with it: 10 μM compound, not shown.
The target of assay [3] is T2, α2A adrenoreceptor (Homo sapiens, UniProt P08913).
T2 construct: expressed in transfected cells; host or cells: HEK-293 or CHO
The experiment in a line: Off-target radioligand binding. The note with it: 10 μM compound.

The subject of assay [4] is hM3Dq. More on the design: method as in PMID 25587888. The note with it: FLIPR assay; cited from earlier work.
In assay [5] the target is T3, D1 dopamine receptor (Homo sapiens, UniProt P21728).
T3 construct: expressed in transfected cells; host or cells: HEK-293 or CHO
The experiment in a line: Off-target radioligand binding. To be noted: 10 μM compound.

Assay [6] deals with T4, α1A adrenoreceptor (Homo sapiens, UniProt P35348).
T4 construct: expressed in transfected cells; host or cells: HEK-293 or CHO
Description: Off-target radioligand binding. To be noted: 10 μM compound.

Assay [7] deals with T5, 5-HT1A serotonin receptor (Homo sapiens, UniProt P08908).
T5 construct: expressed in transfected cells; host or cells: HEK-293 or CHO
The experiment in a line: Off-target radioligand binding. To be noted: 10 μM compound.

For assay [8], the system named is 5-HT1B serotonin receptor. Description: Off-target radioligand binding. More on the design: species or system human. To be noted: 10 μM compound.

Structures are written as SMILES.

One may read the Ki as a measure of affinity in units of concentration, obtained from inhibition or displacement. A higher Ki goes with lower affinity. The inhibition is how much of the control response was suppressed. Low readings indicate little suppression, high ones strong suppression. As usually defined, the EC50 is the concentration that produces a half-maximal response.

T1 sequence (P35367 whole entry): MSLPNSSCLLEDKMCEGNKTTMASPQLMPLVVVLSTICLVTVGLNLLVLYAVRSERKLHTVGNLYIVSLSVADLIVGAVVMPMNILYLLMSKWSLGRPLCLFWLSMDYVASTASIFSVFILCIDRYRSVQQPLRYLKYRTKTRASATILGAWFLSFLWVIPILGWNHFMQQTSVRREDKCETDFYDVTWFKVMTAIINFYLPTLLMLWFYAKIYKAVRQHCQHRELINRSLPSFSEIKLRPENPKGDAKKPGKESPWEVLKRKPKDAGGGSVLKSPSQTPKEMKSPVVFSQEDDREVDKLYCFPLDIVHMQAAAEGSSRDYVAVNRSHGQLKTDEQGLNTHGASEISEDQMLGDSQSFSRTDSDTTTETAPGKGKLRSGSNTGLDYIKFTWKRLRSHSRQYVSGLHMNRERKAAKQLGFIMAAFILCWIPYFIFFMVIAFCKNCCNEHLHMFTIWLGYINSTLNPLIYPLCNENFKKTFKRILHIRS
T3 sequence (P21728 whole entry): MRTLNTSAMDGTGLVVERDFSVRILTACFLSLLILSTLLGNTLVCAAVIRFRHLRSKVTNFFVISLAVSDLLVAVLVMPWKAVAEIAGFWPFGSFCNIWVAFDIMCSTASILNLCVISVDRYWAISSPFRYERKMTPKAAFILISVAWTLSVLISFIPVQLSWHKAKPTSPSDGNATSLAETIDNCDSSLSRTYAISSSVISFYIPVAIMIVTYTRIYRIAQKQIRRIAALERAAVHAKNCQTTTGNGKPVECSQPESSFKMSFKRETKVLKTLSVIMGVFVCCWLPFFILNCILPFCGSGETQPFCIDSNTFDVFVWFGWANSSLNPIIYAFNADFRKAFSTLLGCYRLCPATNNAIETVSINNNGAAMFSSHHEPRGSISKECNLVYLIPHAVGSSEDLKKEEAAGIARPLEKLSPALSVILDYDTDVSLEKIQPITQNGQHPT
T5 sequence (P08908 whole entry): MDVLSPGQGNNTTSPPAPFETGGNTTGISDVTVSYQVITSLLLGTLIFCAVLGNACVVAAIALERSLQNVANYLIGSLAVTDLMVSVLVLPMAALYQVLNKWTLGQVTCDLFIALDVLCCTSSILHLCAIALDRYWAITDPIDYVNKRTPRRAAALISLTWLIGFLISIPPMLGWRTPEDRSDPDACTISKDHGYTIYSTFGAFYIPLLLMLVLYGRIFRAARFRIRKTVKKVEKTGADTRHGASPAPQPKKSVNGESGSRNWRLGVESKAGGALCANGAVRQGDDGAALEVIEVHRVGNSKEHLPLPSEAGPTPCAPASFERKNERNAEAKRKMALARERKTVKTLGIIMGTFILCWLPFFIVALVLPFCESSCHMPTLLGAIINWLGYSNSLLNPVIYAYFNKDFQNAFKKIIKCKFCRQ
Sequence of Lck kinase (P06239 whole entry): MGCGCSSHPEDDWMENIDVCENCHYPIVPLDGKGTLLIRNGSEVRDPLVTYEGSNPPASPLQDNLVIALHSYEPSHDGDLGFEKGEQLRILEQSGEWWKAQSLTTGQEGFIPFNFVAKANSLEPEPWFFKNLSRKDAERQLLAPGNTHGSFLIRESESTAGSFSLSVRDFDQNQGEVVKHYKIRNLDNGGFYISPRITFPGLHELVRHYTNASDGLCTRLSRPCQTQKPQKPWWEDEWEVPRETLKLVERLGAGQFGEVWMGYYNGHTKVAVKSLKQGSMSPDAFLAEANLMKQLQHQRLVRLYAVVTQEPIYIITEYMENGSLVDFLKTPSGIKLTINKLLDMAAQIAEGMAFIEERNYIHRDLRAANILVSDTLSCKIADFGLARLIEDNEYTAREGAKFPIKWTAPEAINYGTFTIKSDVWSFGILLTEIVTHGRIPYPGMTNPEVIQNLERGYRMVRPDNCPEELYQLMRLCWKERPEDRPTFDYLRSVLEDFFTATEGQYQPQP
T4 sequence (P35348 whole entry): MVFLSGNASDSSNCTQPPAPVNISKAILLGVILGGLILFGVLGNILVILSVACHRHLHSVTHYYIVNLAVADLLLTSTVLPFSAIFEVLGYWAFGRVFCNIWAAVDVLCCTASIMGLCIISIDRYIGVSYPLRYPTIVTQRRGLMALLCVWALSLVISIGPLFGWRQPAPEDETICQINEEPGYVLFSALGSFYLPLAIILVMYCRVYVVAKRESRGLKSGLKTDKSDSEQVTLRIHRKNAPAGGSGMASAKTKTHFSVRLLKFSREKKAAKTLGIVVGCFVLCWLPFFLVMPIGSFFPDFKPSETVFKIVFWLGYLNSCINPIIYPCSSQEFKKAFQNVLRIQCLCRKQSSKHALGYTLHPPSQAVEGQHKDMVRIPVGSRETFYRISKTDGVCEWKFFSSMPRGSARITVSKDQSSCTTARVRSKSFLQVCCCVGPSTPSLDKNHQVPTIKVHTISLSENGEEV
T2 sequence (P08913 whole entry): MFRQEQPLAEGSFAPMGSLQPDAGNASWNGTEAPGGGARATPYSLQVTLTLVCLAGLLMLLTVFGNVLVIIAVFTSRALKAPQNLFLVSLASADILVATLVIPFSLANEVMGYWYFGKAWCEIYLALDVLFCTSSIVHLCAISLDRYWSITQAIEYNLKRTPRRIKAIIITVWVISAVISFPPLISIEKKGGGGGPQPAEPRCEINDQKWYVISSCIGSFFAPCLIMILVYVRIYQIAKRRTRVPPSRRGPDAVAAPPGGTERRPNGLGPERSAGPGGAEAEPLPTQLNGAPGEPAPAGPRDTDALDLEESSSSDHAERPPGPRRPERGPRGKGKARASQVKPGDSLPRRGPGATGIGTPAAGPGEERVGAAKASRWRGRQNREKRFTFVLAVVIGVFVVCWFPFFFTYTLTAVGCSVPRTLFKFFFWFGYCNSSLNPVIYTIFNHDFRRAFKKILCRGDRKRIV

With `C[N+]1([O-])CCN(C2=Nc3cc(Cl)ccc3Nc3ccccc32)CC1` [CNO, clozapine-N-oxide], the “competitive inhibition of ligand binding” value in assay [1] (10 μM compound), in assay [3], in assay [5], in assay [6], in assay [7] and in assay [8] was “over 50%” each time. In assay [1] (bound stated in discussion), this compound came in with a Ki of less than 100 nM. The compound also displayed an inhibition in assay [2] of less than 20%. For the same compound, the EC50 in assay [4] is 6 nM.
